What was measured:
[1] = test system: panel of 4 panelists; experiment: Organoleptic test of intrinsic sweet taste against sucrose; format: in vivo; details: 0.5 mg/ml (500 ppm) in non-carbonated mineral water; for sweetness compared with a solution of sucrose 20 mg/ml (control solution): control sucrose 20 mg/ml
Protocol: Organoleptic Test of the Compounds of Formula (I) Against Sucrose
Intrinsic sweet taste: The isolated pure compounds were dissolved in non-carbonated mineral water (“Fonsana Quelle”) in a concentration of 0.5 mg/ml (500 ppm). The sweet taste of each sample was compared by a panel of 4 panelists with a solution of sucrose in a concentration of 20 mg/ml.

[2] = test system: panel of 3 sweet sensitive panelists; experiment: Organoleptic test of sweetness enhancement in combination with sucrose; format: in vivo; details: concentration stated to be near the sweetness detection threshold
Protocol: Organoleptic Test of the Compounds of Formula (I) in Combination with Known Sweeteners
Combination of (I) with Sucrose.
The sweetness enhancement properties of compound Aa and Bb was determined using a sample having a concentration of 100 μg/ml compound Aa and Bb, which is near the sweetness detection threshold, in 7% sucrose solution. The compound Aa and Bb sample was directly compared to samples of 7%, 8% or 9% sucrose, and panelists were instructed to compare the sweetness intensity of the samples. The comparisons were carried out by a panel of 3 sweet sensitive panelists. All samples were presented to panelists in 5 ml aliquots at ambient temperature. Panelists compared the compound Aa and Bb sample to each of the sucrose samples.

| Compound | off-taste [1] | sweetness compared with a solution of sucrose 20 mg/ml (control solution) [1] | sweetness detection threshold [2] [µg/mL] |
| --- | --- | --- | --- |
| COc1cc(/C=C/c2cc(O)cc(O)c2)ccc1O[C@@H]1O[C@H](CO)[C@@H](O)[C@H](O)[C@H]1O [Compound Aa, Gnetifolin E] | no significant off-taste | comparable with the control solution | ~100 |
| OC[C@H]1O[C@@H](Oc2ccc(/C=C/c3cc(O)cc(O)c3)cc2O)[C@H](O)[C@@H](O)[C@@H]1O [Compound Bb, Piceatannol 4′-O-β-D-glucopyranoside] | no significant off-taste | comparable with the control solution | ~100 |

— patent publication US10653172B2, “Natural stilbenes as sweeteners or sweetener enhancer” (Analyticon Discovery GmbH, priority 2015, dated 2020)
